Drawing on patent publication US7381824B2 (Agouron Pharmaceuticals, Inc., priority 2003, dated 2008), this text covers inhibition and Ki for two compounds.

Test [1] has as its target T1, human vascular endothelial growth factor receptor 2 (VEGF-R2) (Homo sapiens, UniProt P35968, DEL940-989/E990V).
T1 construct: VEGF-R2D50 contains residues 806-939 and 990-1171; made in house; host or cells: baculovirus/insect cell system
The test is described as follows: VEGF-R2 coupled spectrophotometric assay (FLVK, unphosphorylated VEGF-R2D50). It counts as biochemical. Put shortly: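 Unphosphorylated VEGF-R2D50 (residues 806-939/990-1171, E990V; baculovirus-expressed), 5 to 40 nM, with 20 mM poly(E4Y1), 3 mM ATP, 60 mM MgCl2 and 2 mM MnCl2 in 200 mM HEPES pH 7.5. ADP formation coupled via PK/LDH to NADH oxidation (A340). Ki fitted by Morrison equation; % inhibition at 50 nM from linear regression of absorbance versus time.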

For the next test, the target named is T2, human FGF-R1 (Homo sapiens, UniProt P11362, C488A/C584S/L457V).
T2 construct: starting from the endogenous methionine residue 456 to glutamate 766; made in house; host or cells: baculovirus vector expression system
The test is described as follows: FGF-R spectrophotometric assay. Type of test: biochemical. As to the method: The intracellular kinase domain of human FGF-R1 was expressed using the baculovirus vector expression system starting from the endogenous methionine residue 456 to glutamate 766, according to the residue numbering system of Mohammadi et al., Mol. Cell. Biol., 16, 977-989 (1996). In addition, the construct also has the following 3 amino acid substitutions: L457V, C488A, and C584S.
The spectrophotometric assay was carried out as described above for VEGF-R2, except for the following changes in concentration: FGF-R=50 nM, ATP=2 mM, and poly(E4Y1)=15 mM.

Like-named read-outs stand apart in the source and are kept apart here.

T1 sequence (P35968 with tags, fused parts or gaps DEL940-989/E990V limits assumed): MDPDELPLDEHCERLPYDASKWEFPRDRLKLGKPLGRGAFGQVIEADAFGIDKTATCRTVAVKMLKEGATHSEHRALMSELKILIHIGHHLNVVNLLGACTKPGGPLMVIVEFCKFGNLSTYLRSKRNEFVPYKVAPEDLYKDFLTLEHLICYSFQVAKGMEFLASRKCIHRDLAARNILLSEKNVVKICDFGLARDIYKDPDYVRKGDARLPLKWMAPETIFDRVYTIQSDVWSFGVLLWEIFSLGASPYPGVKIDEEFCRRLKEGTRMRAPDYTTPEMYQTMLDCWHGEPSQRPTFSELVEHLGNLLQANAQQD
T2 sequence (P11362 456-766 L457V/C488A/C584S): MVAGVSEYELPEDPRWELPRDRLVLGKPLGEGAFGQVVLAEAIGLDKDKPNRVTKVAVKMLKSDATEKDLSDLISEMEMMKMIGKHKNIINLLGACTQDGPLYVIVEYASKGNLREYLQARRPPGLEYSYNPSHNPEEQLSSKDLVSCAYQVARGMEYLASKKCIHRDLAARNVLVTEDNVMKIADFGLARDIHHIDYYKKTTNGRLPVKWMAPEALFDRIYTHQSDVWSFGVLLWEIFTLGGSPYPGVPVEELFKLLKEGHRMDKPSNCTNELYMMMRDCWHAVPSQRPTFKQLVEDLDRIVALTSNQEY

As for `COc1ccc2c(Oc3ccc4cc(C)oc4c3)ccnc2c1` [Example 125, 7-Methoxy-4-(2-methyl-benzofuran-6-yloxy)-quinoline], the results for the inhibition at 1 µM (in test [1]; on human FGF-R1) were 68% and 32%, respectively.
Take `Cc1cc2ccc(Oc3ccnc4cc(OCCN5CCOCC5)ccc34)cc2o1` [Example 126, 4-(2-Methyl-benzofuran-6-yloxy)-7-(2-morpholin-4-yl-ethoxy)-quinoline]: the Ki in test [1] is 32 nM; in test [1] (unphosphorylated VEGF-R2D50 (FLVK)), greater than 10 nM. In addition, at human FGF-R1, the inhibition at 1 µM was determined as 38%.
